{
  "source": "patent US9186334B2",
  "about": "(Nuvo Research Inc., priority 2009, dated 2015)",
  "settings": "transdermal, 12 subjects",
  "method": "Specifically, a single site, open label study was conducted on 12 subjects, with 4-way cross-over. Four (4) patches were applied for 2, 4, or 12 hours.",
  "data": [
    {"smiles": "CCN(CC)CC(=O)Nc1c(C)cccc1C", "note": "[lidocaine]", "values": [
      {"measurement": "rate of delivery, heated patch versus unheated patch", "value": "more rapidly"}
    ]}
  ]
}
